Test results published in paper PMC6155752, “Synthesis of 16 New Hybrids from Tetrahydropyrans Derivatives and Morita-Baylis-Hillman Adducts: In Vitro Screening against Leishmania donovani” (Molecules : A Journal of Synthetic Chemistry and Natural …, 2017).
Where “and” joins values, the source holds several entries; their conditions need not be identical. Identical values can stand only once. Like-named read-outs stand apart in the source and are kept apart here.

Tests used:
[1] = tested on: Leishmania; conditions: read-out: IC50 (leishmanicidal activity), cited from earlier work
[2] = tested on: promastigotes of Leishmania donovani; experiment: Effect on promastigotes of Leishmania donovani (MTT viability assay, 72 h); type: cell-based; conditions: L. donovani promastigotes; for IC50: read-out: IC50 (half maximal inhibitory concentration)
Experimental: Leishmania (Leishmania) donovani (MHOM/ET/1967/HU3) was provided by Oswaldo Cruz Institute Leishmania Collection-Fiocruz-RJ-Brazil. Promastigotes were maintained in vitro at 26 °C in Schneider's medium, pH 7 (20% heat-inactivated fetal bovine serum (FBS), 100 U/mL penicillin, […] streptomycin, and 2% of male urine), as previously described. […] The plates were incubated for 72 h in a biological oxygen demand (B.O.D.) incubator at 26 °C. […] [30].The absorbance was measured using an ELISA plate reader (ELx800, BIOTEK) at 540 nm. Amphotericin® was used as a positive control. The viability of promastigotes incubated in the presence of different concentrations of adducts was determined by comparing to a culture control (L. donovani cultivated in Schneider only). The concentration that caused a 50% reduction in cell viability (IC50) was calculated by Probit analysis (SPSS 13.0 for Windows). Each experiment was performed in duplicate and repeated at least three times.

[3] = tested on: human red blood cells; experiment: Haemolytic assay towards human red blood cells; type: cell-based; conditions: HC50 red blood cells / IC50 L. donovani promastigotes
Experimental: Briefly, promastigotes in the logarithmic growth phase were cultured in 96-well cell culture plates at 1 × 10^6 parasites per well in […] of Schneider's medium with increasing concentrations of 3.12, 6.25, 12.5, 25, 50, 100, 200, and 400 µg/mL of Morita-Baylis-Hillman adduct. The plates were incubated for 72 h in a biological oxygen demand (B.O.D.) incubator at 26 °C. Cytotoxicity to promastigotes was evaluated by the 3-(4,5-dimethyl-2-thiazole)-2,5-diphenyltetrazolium bromide (MTT) colorimetric assay as described by Valadares et al..The absorbance was measured using an ELISA plate reader (ELx800, BIOTEK) at 540 nm. Amphotericin® was used as a positive control. The viability of promastigotes incubated in the presence of different concentrations of adducts was determined by comparing to a culture control (L. donovani cultivated in Schneider only). The concentration that caused a 50% reduction in cell viability (IC50) was calculated by Probit analysis (SPSS 13.0 for Windows). Each experiment was performed in duplicate and repeated at least three times. Haemolytic assays (HC50 > […]) towards human red blood cells were performed as described in the literature.

[4] = tested on: L. donovani; parameters: method as in PMID 27520941; conditions: read-out: anti-leishmania activity; cited from earlier work
[5] = tested on: acetic acid-induced abdominal writhes; experiment: Acetic acid-induced abdominal writhes in mice; type: in vivo; conditions: unpublished results
[6] = tested on: acetic acid-induced abdominal writhes; parameters: method as in earlier work; conditions: mice, ref 16 (Capim et al., Bioorg. Med. Chem. 2013); cited from earlier work
[7] = Figure 1, hybrid 5 and precursor eugenol
[8] = Figure 1, hybrid 1 and precursors

Molecule: CC[C@@H]1CCC[C@H](CO)O1 [compound 5]
- IC50 [1, 7]: 4.7 µM

Molecule: C=C(C(=O)OCC1CCCC(CC)O1)C(O)c1cccc([N+](=O)[O-])c1 (stereo not shown) [9b, 2-[Hydroxy-(3-nitro-phenyl)-methyl]-acrylic acid 6-ethyl-tetrahydro-pyran-2-ylmethyl ester]
- IC50 ([2]; Leishmania donovani): 13.8 µg/mL and 39.4 µM

Molecule: C=CCc1ccc(O)c(OC)c1 [compound 4, eugenol]
- IC50 [1, 7]: 77.5 µM

Molecule: C=C(C(=O)OCC1CCCC(CC)O1)C(O)c1ccccn1 (stereo not shown) [9d, 2-(Hydroxy-pyridin-2-yl-methyl)-acrylic acid 6-ethyl-tetrahydro-pyran-2-ylmethyl ester]
- IC50 ([2]; Leishmania donovani): 72.3 µg/mL and 240 µM

Molecule: C=C(C(=O)OCC1CCCC(CC)O1)C(O)c1ccccc1[N+](=O)[O-] (stereo not shown) [9a, 2-[Hydroxy-(2-nitro-phenyl)-methyl]-acrylic acid 6-ethyl-tetrahydro-pyran-2-ylmethyl ester]
- IC50 ([2]; Leishmania donovani): 5.64 µg/mL and 16.1 µM
- SIrb (selectivity index on red blood cell) = HC50/IC50 [3]: >70.94

Molecule: C=C(C(=O)OC)C(O)c1ccccc1[N+](=O)[O-] (stereo not shown) [compound 3]
- IC50 [1, 8]: 347 µM

Molecule: C=C(C(=O)Oc1ccccc1C(=O)OC)C(O)c1ccccc1[N+](=O)[O-] (stereo not shown) [compound 1]
- IC50 [1, 8]: 28.3 µM

Molecule: C=C(C(=O)OCC1CC(Cl)CC(c2cccc3ccccc23)O1)C(O)c1ccccn1 (stereo not shown) [8d, 2-(Hydroxy-pyridin-2-yl-methyl)-acrylic acid 4-chloro-6-naphthalen-1-yl-tetrahydro-pyran-2-yl methyl ester]
- IC50 ([2]; Leishmania donovani): 61.9 µg/mL and 142 µM

Molecule: C[C@@H]1[C@H](O)[C@@H](C)/C=C/C=C/C=C/C=C/C=C/C=C/C=C/[C@H](O[C@@H]2O[C@H](C)[C@@H](O)[C@H](N)[C@@H]2O)C[C@@H]2O[C@](O)(C[C@@H](O)C[C@@H](O)[C@H](O)CC[C@@H](O)C[C@@H](O)CC(=O)O[C@H]1C)C[C@H](O)[C@H]2C(=O)O [Amphotericin B, reference compound]
- IC50 ([2]; Leishmania donovani): 0.35 µg/mL and 380 nM
- SIrb (selectivity index on red blood cell) = HC50/IC50 [3]: 33.05
- IC50 [4]: 0.62 µM

Molecule: 2-(Hydroxy-naphthalen-2-yl-methyl)-acrylic acid 6-ethyl-tetrahydro-pyran-2-ylmethyl ester [9g]
- IC50 (half maximal inhibitory concentration) [2]: 9.73 ± 4.8 µg/mL
- IC50 [2]: 27.5 ± 13.6 µM

Molecule: CC[C@@H]1CCC[C@H](CO)O1 [compound 7]
- IC50 ([2]; Leishmania donovani): > 400 µg/mL and > 2.78 mM
- Calculated ED50 [5]: 41.67 μmol·kg^–1

Molecule: COC(=O)c1ccccc1O [compound 2, methyl salicylate]
- IC50 [1, 8]: 1720 µM

Molecule: OC[C@H]1C[C@@H](Cl)C[C@@H](c2cccc3ccccc23)O1 (relative stereo) [compound 6, [(±)-(2,4,6-cis)-4-chloro-6-(naphthalen-1-yl)-tetrahydro-2H-pyran-2-yl]methanol]
- IC50 ([2]; Leishmania donovani): 47.5 µg/mL and 172 µM
- Calculated ED50 [6]: 27.97 μmol·kg^–1

Molecule: 2-(Hydroxy-naphthalen-2-yl-methyl)-acrylic acid 4-chloro-6-naphthalen-1-yl-tetrahydro-pyran -2-ylmethyl ester [8g]
- IC50 (half maximal inhibitory concentration) [2]: 24.51 ± 7.5 µg/mL
- IC50 [2]: 50.4 ± 15.4 µM

Molecule: C=C(C(=O)OCC1CCCC(CC)O1)C(O)c1ccncc1 (stereo not shown) [9f, 2-(Hydroxy-pyridin-4-yl-methyl)-acrylic acid 6-ethyl-tetrahydro-pyran-2-ylmethyl ester]
- IC50 ([2]; Leishmania donovani): 57.8 µg/mL and 189 µM

Molecule: C=C(C(=O)OCC1CC(Cl)CC(c2cccc3ccccc23)O1)C(O)c1cccc([N+](=O)[O-])c1 (stereo not shown) [8b, 2-[Hydroxy-(3-nitro-phenyl)-methyl]-acrylic acid 4-chloro-6-naphthalen-1-yl-tetrahydro-pyran-2-yl-methyl ester]
- IC50 ([2]; Leishmania donovani): 8.76 µg/mL and 18.2 µM

Molecule: C=C(C(=O)OCC1CC(Cl)CC(c2cccc3ccccc23)O1)C(O)c1ccccc1[N+](=O)[O-] (stereo not shown) [8a, 2-[Hydroxy-(2-nitro-phenyl)-methyl]-acrylic acid 4-chloro-6-naphthalen-1-yl-tetrahydro-pyran-2-ylmethyl ester]
- IC50 ([2]; Leishmania donovani): 7.09 µg/mL and 14.7 µM
- SIrb (selectivity index on red blood cell) = HC50/IC50 [3]: >56.40

Molecule: C=C(C(=O)OCC1CC(Cl)CC(c2cccc3ccccc23)O1)C(O)c1ccc(Br)cc1 (stereo not shown) [8h, 2-[(4-Bromo-phenyl)-hydroxy-methyl]-acrylic acid 4-chloro-6-naphthalen-1-yl-tetrahydro-pyran-2-ylmethyl ester]
- IC50 ([2]; Leishmania donovani): 17.2 µg/mL and 33.4 µM

Molecule: C=C(C(=O)OCC1CC(Cl)CC(c2cccc3ccccc23)O1)C(O)c1ccc([N+](=O)[O-])cc1 (stereo not shown) [8c, 2-[Hydroxy-(4-nitro-phenyl)-methyl]-acrylic acid 4-chloro-6-naphthalen-1-yl-tetrahydro-pyran-2-ylmethyl ester]
- IC50 ([2]; Leishmania donovani): 9.05 µg/mL and 18.8 µM

Molecule: C=C(C(=O)OCC1CCCC(CC)O1)C(O)c1ccc([N+](=O)[O-])cc1 (stereo not shown) [9c, 2-[Hydroxy-(4-nitro-phenyl)-methyl]-acrylic acid 6-ethyl-tetrahydro-pyran-2-ylmethyl ester]
- IC50 ([2]; Leishmania donovani): 7.03 µg/mL and 20.1 µM
- SIrb (selectivity index on red blood cell) = HC50/IC50 [3]: >56.91

Molecule: C=C(C(=O)OCC1CCCC(CC)O1)C(O)c1ccc(Br)cc1 (stereo not shown) [9h, 2-[(4-Bromo-phenyl)-hydroxy-methyl]-acrylic acid 6-ethyl-tetrahydro-pyran-2-ylmethyl ester]
- IC50 ([2]; Leishmania donovani): 2.22 µg/mL and 5.81 µM
- SIrb (selectivity index on red blood cell) = HC50/IC50 [3]: >180.19

Molecule: C=C(C(=O)OCC1CC(Cl)CC(c2cccc3ccccc23)O1)C(O)c1cccnc1 (stereo not shown) [8e, 2-(Hydroxy-pyridin-3-yl-methyl)-acrylic acid 4-chloro-6-naphthalen-1-yl-tetrahydro-pyran-2-yl methyl ester]
- IC50 ([2]; Leishmania donovani): 8.76 µg/mL and 20 µM

Molecule: C=C(C(=O)OCC1CCCC(CC)O1)C(O)c1cccnc1 (stereo not shown) [9e, 2-(Hydroxy-pyridin-3-yl-methyl)-acrylic acid 6-ethyl-tetrahydro-pyran-2-ylmethyl ester]
- IC50 ([2]; Leishmania donovani): 17.7 µg/mL and 57.9 µM

Molecule: C=C(C(=O)OCC1CC(Cl)CC(c2cccc3ccccc23)O1)C(O)c1ccncc1 (stereo not shown) [8f, 2-(Hydroxy-pyridin-4-yl-methyl)-acrylic acid 4-chloro-6-naphthalen-1-yl-tetrahydro-pyran-2-yl methyl ester]
- IC50 ([2]; Leishmania donovani): 8.96 µg/mL and 20.5 µM
